According to patent US20030148337A1, “ARL-2 for birth control” (Schering AG, priority 2001, published 2003):

What was measured:
[1] = target: T1, human ARL-2 protein (Homo sapiens, UniProt C9JRZ8); experiment: Standard ARL-2 enzyme assay (NADPH A340 decrease); format: biochemical; conditions: sodium-phosphate buffer pH 6.3, 0.2 mmol NADPH, 28° C.
T1 construct: For the expression of the ARL-2 protein, the coding area was amplified by means of the polymerase chain reaction; His-tag; made in house; host or cells: E. coli (pQE30) or insect cells (baculovirus pBlueBac4.5/V5-His-TOPO)
T1 sequence (C9JRZ8 whole entry): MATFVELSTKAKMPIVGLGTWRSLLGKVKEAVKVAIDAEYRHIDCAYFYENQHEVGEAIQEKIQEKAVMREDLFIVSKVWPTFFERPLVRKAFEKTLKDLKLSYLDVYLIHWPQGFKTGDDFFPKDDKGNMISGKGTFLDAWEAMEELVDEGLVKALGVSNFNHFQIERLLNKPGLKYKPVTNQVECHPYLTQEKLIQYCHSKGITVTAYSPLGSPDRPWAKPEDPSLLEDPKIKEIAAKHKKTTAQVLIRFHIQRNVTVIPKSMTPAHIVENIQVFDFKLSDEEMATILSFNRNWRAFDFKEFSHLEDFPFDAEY
Excerpt: For the expression of the ARL-2 protein, the coding area was amplified by means of the polymerase chain reaction (for reaction conditions, see Example 2) (primer for the N-terminal area: 5′ ATGGCCACGTTTGTGGAGCTC 3′; primer for the C-terminal area: 5′ ATATTCTGCATCGAAGGGAAA 3′), and inserted in the baculovirus expression vector pBlueBac4.5/V5-His-TOPO (Invitrogen) or the eukaryotic expression vector pcDNA3.1/V5/His-TOPO (Invitrogen). For the expression of the ARL-2 protein in E. coli, the coding area was amplified by means of a polymerase chain reaction (for reaction conditions, see Example 2) (primer for the N-terminal area: 5′ CGGGATCCGCCACGTTTGTGGAGCTC 3′; primer for the C-terminal area: 5′ CCCAAGCTTTCAATATTCTGCATCGAAGGGAAA 3′) and inserted in the procaryotic expression vector pQE30 (Quiagen). To simplify detection and purification, a fusion with an His-tag was carried out. […]
A standard ARL-2 enzyme assay was performed as follows: The standard enzyme reaction batch contained 135 mmol of sodium-phosphate buffer (pH 6.3), 0.2 mmol of NADPH and measured substrate and enzyme concentrations. The enzyme reaction was carried out at 28° C., and the substrate conversion was determined by spectrometry via the reduction of A340 of the NADPH. […] Controls without substrate and without enzyme were measured with respect to the standard. […]

[2] = tested on: adrenocorticotrophic carcinoma cell line Y1; experiment: Test system for apoptosis-inducing substances, annexin-V staining in Y1 cells; format: cell-based, mouse; conditions: concentration of 10 μM; 12 hours incubation
Procedure: In this test system, substances can be examined with respect to their apoptosis-inducing action. The adrenocorticotrophic carcinoma cell line Y1 was used as a cell system. Cell cultures of this mouse cell line were treated for 12 hours with different substances before the rate of apoptosis in the cells was determined. […] Y1 cells/ml were resuspended in DME/F12 (+10% FCS) and treated with the substances to be tested. After 12 hours of incubation time, the apoptosis rate was determined in the Y1 cells using annexin-V-alexa 468 staining (Roche) in combination with DNA staining (Hoechst-33258, Molecular Probes) according to manufacturer's information.

[3] = tested on: endothelial cell cultures; conditions: Herbst et al., 1997; cited from earlier work
[4] = tested on: neuronal cell cultures; conditions: Kruman et al., 1997; Malecki et al., 2000; cited from earlier work

| SMILES | substrate of the aldo-keto-reductase ARL-2 [1] | induction of apoptosis in the Y1 cell line [2] | induction of apoptosis in endothelial cell cultures [3] | induction of apoptosis in neuronal cell cultures [4] |
| --- | --- | --- | --- | --- |
| CCCCCC(O)/C=C/C=O (centres unmarked) [4-hydroxynonenal] | preferred substrates | can induce apoptosis | induces apoptosis | induces apoptosis |
| CC(C)CCC=O [isocaproaldehyde] | preferred substrates | – | – | – |
